Measurements: patent US11197878B2, “Anti-inflammatory composition including novel quercetin-based compound” (AMOREPACIFIC CORPORATION, priority 2017, dated 2021)

Test system: skin
Assay: Test for skin accumulated stimulus, HRIPT (Human repeated insult patch tests)
Assay type: in vivo
Parameters: key to skin reactivity (ICDRG criteria): −: negative (no response); ±: doubtful or slight erythema, etc.; +: weak reaction (which is accompanied with no phlyctenule), erythema, papule; ++: severe reaction (which is accompanied with phlyctenule), erythema, papule, phlyctenule; +++: strong reaction, bullae reaction
Conditions: for Number of examinees who exhibited ±, +, or ++ reactivity, 1st: 1st patch; for Number of examinees who exhibited ±, +, or ++ reactivity, 2nd: 2nd patch; for Number of examinees who exhibited ±, +, or ++ reactivity, 3rd: 3rd patch; for Number of examinees who exhibited ±, +, or ++ reactivity, 4th: 4th patch; for Number of examinees who exhibited ±, +, or ++ reactivity, 5th: 5th patch; for Number of examinees who exhibited ±, +, or ++ reactivity, 6th: 6th patch; for Number of examinees who exhibited ±, +, or ++ reactivity, 7th: 7th patch; for Number of examinees who exhibited ±, +, or ++ reactivity, 8th: 8th patch; for average reactivity: 9 patches over 3 weeks, 15 examinees, less than 3 is considered a stable composition; for Number of examinees who exhibited ±, +, or ++ reactivity, 9th: 9th patch
Method: HRIPT (Human repeated insult patch tests) was conducted in order to identify skin accumulated stimulus of quercetin3-O-[3-O″-(E)-p-coumaroyl][β-D-glucopyranosyl-(1→3)-O-α-L-rhamnopyranosyl-(1→6)-O-β-D-glucopyranoside] and quercetin3-O-[3-O″-(E)-p-coumaroyl][α-L-rhamnopyranosyl-(1→6)-O-β-D-glucopyranoside] and to calculate the concentration range that can be used in skin. Specifically, 15 healthy adult examinees were randomly selected, and test compositions in which the compounds were respectively comprised in an amount of 0.5 wt. %, 1 wt. %, and 3 wt. % (the compositions for skin, comprising an emulsifying agent, a stabilizer, purified water, etc. in addition to the compounds) were dropped in the amount of 20 μl per chamber (IQ chamber, Epitest Ltd, Finland), and patched on the right site of the upper back of the examinees, and then, after 24 hours, the patch was replaced with a new patch. A total of 9 patches were conducted, three times a week for total 3 weeks, in such manner, the skin reactions before and after patch were examined every time, and the skin reactions until 48 hours after removing the final patch were observed, and the average reactivity was observed. The skin reaction was determined according to the criteria of International Contact Dermatitis Research Group (ICDRG). In the above table, “New Material 31” refers to quercetin3-O-[3-O″-(E)-p-coumaroyl][β-D-glucopyranosyl-(1→3)-O-α-L-rhamnopyranosyl-(1→6)-O-β-D-glucopyranoside], and “New Material 32” refers to quercetin3-O-[3-O″-(E)-p-coumaroyl][α-L-rhamnopyranosyl-(1→6)-O-β-D-glucopyranoside].

Number of examinees who exhibited ±, +, or ++ reactivity, 1st (0.5 wt. %, line 1 of 3 (±)): 0 number
Number of examinees who exhibited ±, +, or ++ reactivity, 1st (0.5 wt. %, line 2 of 3 (+)): 0 number
Number of examinees who exhibited ±, +, or ++ reactivity, 1st (0.5 wt. %, line 3 of 3 (++)): 0 number
Number of examinees who exhibited ±, +, or ++ reactivity, 2nd (0.5 wt. %, line 1 of 3 (±)): 0 number
Number of examinees who exhibited ±, +, or ++ reactivity, 2nd (0.5 wt. %, line 2 of 3 (+)): 0 number
Number of examinees who exhibited ±, +, or ++ reactivity, 2nd (0.5 wt. %, line 3 of 3 (++)): 0 number
Number of examinees who exhibited ±, +, or ++ reactivity, 3rd (0.5 wt. %, line 1 of 3 (±)): 0 number
Number of examinees who exhibited ±, +, or ++ reactivity, 3rd (0.5 wt. %, line 2 of 3 (+)): 0 number
Number of examinees who exhibited ±, +, or ++ reactivity, 3rd (0.5 wt. %, line 3 of 3 (++)): 0 number
Number of examinees who exhibited ±, +, or ++ reactivity, 4th (0.5 wt. %, line 1 of 3 (±)): 0 number
Number of examinees who exhibited ±, +, or ++ reactivity, 4th (0.5 wt. %, line 2 of 3 (+)): 0 number
Number of examinees who exhibited ±, +, or ++ reactivity, 4th (0.5 wt. %, line 3 of 3 (++)): 0 number
Number of examinees who exhibited ±, +, or ++ reactivity, 5th (0.5 wt. %, line 1 of 3 (±)): 0 number
Number of examinees who exhibited ±, +, or ++ reactivity, 5th (0.5 wt. %, line 2 of 3 (+)): 0 number
Number of examinees who exhibited ±, +, or ++ reactivity, 5th (0.5 wt. %, line 3 of 3 (++)): 0 number
Number of examinees who exhibited ±, +, or ++ reactivity, 6th (0.5 wt. %, line 1 of 3 (±)): 0 number
Number of examinees who exhibited ±, +, or ++ reactivity, 6th (0.5 wt. %, line 2 of 3 (+)): 0 number
Number of examinees who exhibited ±, +, or ++ reactivity, 6th (0.5 wt. %, line 3 of 3 (++)): 0 number
Number of examinees who exhibited ±, +, or ++ reactivity, 7th (0.5 wt. %, line 1 of 3 (±)): 0 number
Number of examinees who exhibited ±, +, or ++ reactivity, 7th (0.5 wt. %, line 2 of 3 (+)): 0 number
Number of examinees who exhibited ±, +, or ++ reactivity, 7th (0.5 wt. %, line 3 of 3 (++)): 0 number
Number of examinees who exhibited ±, +, or ++ reactivity, 8th (0.5 wt. %, line 1 of 3 (±)): 0 number
Number of examinees who exhibited ±, +, or ++ reactivity, 8th (0.5 wt. %, line 2 of 3 (+)): 0 number
Number of examinees who exhibited ±, +, or ++ reactivity, 8th (0.5 wt. %, line 3 of 3 (++)): 0 number
average reactivity (0.5 wt. %): 0
Number of examinees who exhibited ±, +, or ++ reactivity, 9th (0.5 wt. %, line 1 of 3 (±)): 0 number
Number of examinees who exhibited ±, +, or ++ reactivity, 9th (0.5 wt. %, line 2 of 3 (+)): 0 number
Number of examinees who exhibited ±, +, or ++ reactivity, 9th (0.5 wt. %, line 3 of 3 (++)): 0 number
Number of examinees who exhibited ±, +, or ++ reactivity, 1st (1 wt. %, line 1 of 3 (±)): 0 number
Number of examinees who exhibited ±, +, or ++ reactivity, 1st (1 wt. %, line 2 of 3 (+)): 0 number
Number of examinees who exhibited ±, +, or ++ reactivity, 1st (1 wt. %, line 3 of 3 (++)): 0 number
Number of examinees who exhibited ±, +, or ++ reactivity, 2nd (1 wt. %, line 1 of 3 (±)): 0 number
Number of examinees who exhibited ±, +, or ++ reactivity, 2nd (1 wt. %, line 2 of 3 (+)): 0 number
Number of examinees who exhibited ±, +, or ++ reactivity, 2nd (1 wt. %, line 3 of 3 (++)): 0 number
Number of examinees who exhibited ±, +, or ++ reactivity, 3rd (1 wt. %, line 1 of 3 (±)): 0 number
Number of examinees who exhibited ±, +, or ++ reactivity, 3rd (1 wt. %, line 2 of 3 (+)): 0 number
Number of examinees who exhibited ±, +, or ++ reactivity, 3rd (1 wt. %, line 3 of 3 (++)): 0 number
Number of examinees who exhibited ±, +, or ++ reactivity, 4th (1 wt. %, line 1 of 3 (±)): 0 number
Number of examinees who exhibited ±, +, or ++ reactivity, 4th (1 wt. %, line 2 of 3 (+)): 0 number
Number of examinees who exhibited ±, +, or ++ reactivity, 4th (1 wt. %, line 3 of 3 (++)): 0 number
Number of examinees who exhibited ±, +, or ++ reactivity, 5th (1 wt. %, line 1 of 3 (±)): 0 number
Number of examinees who exhibited ±, +, or ++ reactivity, 5th (1 wt. %, line 2 of 3 (+)): 0 number
Number of examinees who exhibited ±, +, or ++ reactivity, 5th (1 wt. %, line 3 of 3 (++)): 0 number
Number of examinees who exhibited ±, +, or ++ reactivity, 6th (1 wt. %, line 1 of 3 (±)): 0 number
Number of examinees who exhibited ±, +, or ++ reactivity, 6th (1 wt. %, line 2 of 3 (+)): 0 number
Number of examinees who exhibited ±, +, or ++ reactivity, 6th (1 wt. %, line 3 of 3 (++)): 0 number
Number of examinees who exhibited ±, +, or ++ reactivity, 7th (1 wt. %, line 1 of 3 (±)): 0 number
Number of examinees who exhibited ±, +, or ++ reactivity, 7th (1 wt. %, line 2 of 3 (+)): 0 number
Number of examinees who exhibited ±, +, or ++ reactivity, 7th (1 wt. %, line 3 of 3 (++)): 0 number
Number of examinees who exhibited ±, +, or ++ reactivity, 8th (1 wt. %, line 1 of 3 (±)): 0 number
Number of examinees who exhibited ±, +, or ++ reactivity, 8th (1 wt. %, line 2 of 3 (+)): 0 number
Number of examinees who exhibited ±, +, or ++ reactivity, 8th (1 wt. %, line 3 of 3 (++)): 0 number
average reactivity (1 wt. %): 0
Number of examinees who exhibited ±, +, or ++ reactivity, 9th (1 wt. %, line 1 of 3 (±)): 0 number
Number of examinees who exhibited ±, +, or ++ reactivity, 9th (1 wt. %, line 2 of 3 (+)): 0 number
Number of examinees who exhibited ±, +, or ++ reactivity, 9th (1 wt. %, line 3 of 3 (++)): 0 number
Number of examinees who exhibited ±, +, or ++ reactivity, 1st (3 wt. %, line 1 of 3 (±)): 0 number
Number of examinees who exhibited ±, +, or ++ reactivity, 1st (3 wt. %, line 2 of 3 (+)): 0 number
Number of examinees who exhibited ±, +, or ++ reactivity, 1st (3 wt. %, line 3 of 3 (++)): 0 number
Number of examinees who exhibited ±, +, or ++ reactivity, 2nd (3 wt. %, line 1 of 3 (±)): 0 number
Number of examinees who exhibited ±, +, or ++ reactivity, 2nd (3 wt. %, line 2 of 3 (+)): 0 number
Number of examinees who exhibited ±, +, or ++ reactivity, 2nd (3 wt. %, line 3 of 3 (++)): 0 number
Number of examinees who exhibited ±, +, or ++ reactivity, 3rd (3 wt. %, line 1 of 3 (±)): 0 number
Number of examinees who exhibited ±, +, or ++ reactivity, 3rd (3 wt. %, line 2 of 3 (+)): 0 number
Number of examinees who exhibited ±, +, or ++ reactivity, 3rd (3 wt. %, line 3 of 3 (++)): 0 number
Number of examinees who exhibited ±, +, or ++ reactivity, 4th (3 wt. %, line 1 of 3 (±)): 0 number
Number of examinees who exhibited ±, +, or ++ reactivity, 4th (3 wt. %, line 2 of 3 (+)): 0 number
Number of examinees who exhibited ±, +, or ++ reactivity, 4th (3 wt. %, line 3 of 3 (++)): 0 number
Number of examinees who exhibited ±, +, or ++ reactivity, 5th (3 wt. %, line 1 of 3 (±)): 0 number
Number of examinees who exhibited ±, +, or ++ reactivity, 5th (3 wt. %, line 2 of 3 (+)): 0 number
Number of examinees who exhibited ±, +, or ++ reactivity, 5th (3 wt. %, line 3 of 3 (++)): 0 number
Number of examinees who exhibited ±, +, or ++ reactivity, 6th (3 wt. %, line 1 of 3 (±)): 0 number
Number of examinees who exhibited ±, +, or ++ reactivity, 6th (3 wt. %, line 2 of 3 (+)): 0 number
Number of examinees who exhibited ±, +, or ++ reactivity, 6th (3 wt. %, line 3 of 3 (++)): 0 number
Number of examinees who exhibited ±, +, or ++ reactivity, 7th (3 wt. %, line 1 of 3 (±)): 0 number
Number of examinees who exhibited ±, +, or ++ reactivity, 7th (3 wt. %, line 2 of 3 (+)): 0 number
Number of examinees who exhibited ±, +, or ++ reactivity, 7th (3 wt. %, line 3 of 3 (++)): 0 number
Number of examinees who exhibited ±, +, or ++ reactivity, 8th (3 wt. %, line 1 of 3 (±)): 0 number
Number of examinees who exhibited ±, +, or ++ reactivity, 8th (3 wt. %, line 2 of 3 (+)): 0 number
Number of examinees who exhibited ±, +, or ++ reactivity, 8th (3 wt. %, line 3 of 3 (++)): 0 number
average reactivity (3 wt. %): 0
Number of examinees who exhibited ±, +, or ++ reactivity, 9th (3 wt. %, line 1 of 3 (±)): 0 number
Number of examinees who exhibited ±, +, or ++ reactivity, 9th (3 wt. %, line 2 of 3 (+)): 0 number
Number of examinees who exhibited ±, +, or ++ reactivity, 9th (3 wt. %, line 3 of 3 (++)): 0 number
skin reactivity (ICDRG criteria) (within the range of contents 0.5 wt. %, 1 wt. %, 3 wt. %): −
SMILES: C[C@@H]1O[C@@H](OC[C@H]2O[C@@H](Oc3c(-c4ccc(O)c(O)c4)oc4cc(O)cc(O)c4c3=O)[C@H](O)[C@@H](OC(=O)/C=C/c3ccc(O)cc3)[C@@H]2O)[C@H](O)[C@H](O)[C@H]1O [New Material 32, quercetin3-O-[3-O″-(E)-p-coumaroyl][α-L-rhamnopyranosyl-(1→6)-O-β-D-glucopyranoside]]
